# Laboratory results reported in patent EP2153845A1, “Endoglin peptides, vaccines and methods for preparing the same” (Julius-Maximilians-Universität Würzburg, priority 2008, dated 2010).
# B1: hCD105 11-19 (peptide)
# peptide: ALLLASCSL
# notes: Synthetic nonamer selected from human CD105 (endoglin); also called parental peptide
# B2: hCD105 605-613 (peptide)
# peptide: LLTAALWYI
# notes: as for B1
# B3: hCD105 482-490 (peptide)
# peptide: SVSEFLLQL
# notes: as for B1
# B4: hCD105 419-427 (peptide)
# peptide: SMISNEAVV
# notes: as for B1
# B5: hCD105 309-317 (peptide)
# peptide: SIVASFVEL
# notes: as for B1
# B6: hCD105 298-306 (peptide)
# peptide: GLLGEARML
# notes: as for B1
# B7: hCD105 309-317 (310L, 317V) (peptide)
# peptide: SLVASFVEV
# notes: also called AA 310: leucine AA 317: valine
# B8: hCD105 600-608 (peptide)
# peptide: FLIGALLTA
# notes: as for B1
# B9: hCD105 61-69 (peptide)
# peptide: ILEVHVLFL
# notes: as for B1
# B10: hCD105 251-259 (peptide)
# peptide: LILQGPPYV
# notes: as for B1
# B11: hCD105 533-541 (peptide)
# peptide: LLHFYTVPI
# notes: as for B1
# B12: hCD105 482-490 (483L, 490V) (peptide)
# peptide: SLSEFLLQV
# notes: also called AA 483: leucine AA 490: valine
# Tests used:
# [1] = system: peripheral blood lymphocytes of melanoma patients; experiment: human IFN-γ ELISPOT after in vitro peptide stimulation of PBL; assay type: cell-based; settings: for specific immune responses / T cell activity in vitro (IFN-γ ELISPOT): PBL of melanoma patients prestimulated in vitro with 10 µM peptide, Figs. 4 and 5; for specific responses in peripheral blood of melanoma patients in comparison to control experiments and parental peptides: IFN-γ ELISPOT, modified versus parental peptides, Fig. 5
# Experimental: To extend the sensitivity of the ELISPOT assay, PBL were stimulated once in vitro before analysis (McCutcheon et al., 1997). At day 0, PBL were thawed or freshly isolated from peripheral blood and plated in a cell concentration of 1x10^6/ml and 5 ml/well in 6-well plates (Greiner GmbH, Frickenhausen, Germany) in X-vivo medium (Cambrex Biosciences, Verviers, Belgium) with 10% heat inactivated human AB serum in the presence of 10 µM peptide (GeneScript Corporation, Piscataway, New Jersey, USA). On day 1 and 4 40 U IL-2/ml (Proleukin, Chiron GmbH, Munich, Gemany) were added to the culture. The cultured cells were tested for reactivity in ELISPOT on day 7.
# The human IFN-γ ELISPOT assay was used to quantify peptide epitope-specific IFN-γ-releasing effector cells as described in Berke et al. 2000. Nitrocellulose-bottomed 96-well plates (MultiScreen MAIP N45, Millipore GmbH, Schwalbach, Germany) were activated with 35% ethanol, washed with PBS and coated with anti-IFN-γ antibody (1-D1 K, Mabtech, Hamburg, Germany). The wells were washed and blocked by X-vivo medium before adding 1x10^4 stimulator T2 cells loaded with or without 10 µM peptide and 3x10^5, 1x10^5 or 3x10^4 effector cells. After incubation overnight the wells were washed before addition of biotinylated secondary antibody (7-B6-1-Biotin, Mabtech, Hamburg, Germany). The plates were incubated for 2 h, washed, and streptavidine-enzyme conjugate (Streptavidin-ALP-PQ, Mabtech, Hamburg, Germany) was added. Incubation at room temperature for 1 h was followed by addition of enzyme substrate NBT/BCIP (Mabtech, Hamburg, Germany). The reaction was stopped by washing with tap water upon the appearance of dark purple spots. Spots were counted using the ImmunoSpot Series 2.0 Analyzer (CTL Cellular Technology Ltd., Schwäbisch Gmünd, Germany). The peptide-specific CTL frequency was calculated from the numbers of spot-forming cells. All assays were performed in duplicates. Responders were defined as having an average number of > 25 antigen-specific spots per 10^5 Cells (Spots with peptide - Spots without peptide).
# [2] = system: HLA-A2/k^b transgenic mice; experiment: immunization of mice and analysis of immune responses by murine IFN-γ ELISPOT; assay type: in vivo; settings: Fig. 6; for T cell IFN-γ responses after immunization of mice: HLA-A2/k^b transgenic mice vaccinated with peptides and incomplete Freund's adjuvant, spleen cells in ELISPOT; for immune responses in the mouse model in comparison to control experiments and parental epitopes: HLA-A2/k^b transgenic mice, modified versus parental peptides
# Experimental: HLA-A2/k^b transgenic mice (deposited by Linda A. Sherman at MMRCC, University of North Carolina, Chapel Hill, USA) were immunized with a mixture of 5-6 CD105 peptides (5 µg/peptide) and incomplete Freund's adjuvant 7 times once weekly. Spleen cells were analyzed in a murine IFN-γ ELISPOT after in vitro stimulation. Cells were stimulated for six days with 200 U IL-2/ml and 10 µM peptide loaded, mitomycin C treated LPS blasts, generated by stimulation of HLA-A2k^b spleen cells with 25 µg/ml LPS (Sigma-Aldrich, Taufkirchen, Germany) and 7 µg/ml dextran sulfate for three days. Subsequently 3x10^5, 1x10^5, and 0.3x10^5 spleen cells were seeded with or without 10 µM peptide in RPMI 1640/10% FCS in duplicates in nitrocellulose-bottomed 96-well plates (MultiScreen MAIP N45, Millipore GmbH) coated with an IFN-γ specific coating antibody (Mabtech) and blocked with cell culture medium and incubated overnight. The development of the murine IFN-γ ELISPOT was done as described for the human ELISPOT, with the exception that PBS/0.05% Tween 20 was used as washing buffer and the biotinylated anti-mouse IFN-γ antibody (Mabtech, diluted in PBS/1% BSA) as detection antibody. Table 1: Sequence listing
# [3] = molecular target: T1, human leukocyte antigen A2 (HLA-A2) on the acid-stripped HLA-A2 positive cell line JY (human); experiment: competitive binding assay on acid-stripped JY cells, flow cytometry
# T1 construct: whole, on cells; Empty, acid-stripped HLA-A2 on JY cells; also called HLA-A*0201
# [4] = molecular target: T1, human leukocyte antigen A2 (HLA-A2) on …; experiment: competitive binding assay vs fluorescein-labeled reference peptide on acid-stripped HLA-A2 positive JY cells, flow cytometry
molecule,measurement,setting,value
SEQ ID NO: 1 (ALLLASCSL),specific immune responses / T cell activity in vitro (IFN-γ ELISPOT),[1],induce T cell activity in vitro very efficiently
SEQ ID NO: 3 (LILQGPPYV),specific immune responses / T cell activity in vitro (IFN-γ ELISPOT),[1],induce T cell activity in vitro very efficiently
same,T cell IFN-γ responses after immunization of mice,[2],high T cell IFN-γ responses
SEQ ID NO: 7 (SVSEFLLQL),specific immune responses / T cell activity in vitro (IFN-γ ELISPOT),[1],induce T cell activity in vitro very efficiently
same,T cell IFN-γ responses after immunization of mice,[2],high T cell IFN-γ responses
SEQ ID NO: 8 (LLHFYTVPI),specific immune responses / T cell activity in vitro (IFN-γ ELISPOT),[1],induce T cell activity in vitro very efficiently
same,T cell IFN-γ responses after immunization of mice,[2],high T cell IFN-γ responses
SEQ ID NO: 10 (LLTAALWYI),specific immune responses / T cell activity in vitro (IFN-γ ELISPOT),[1],induce T cell activity in vitro very efficiently
same,T cell IFN-γ responses after immunization of mice,[2],high T cell IFN-γ responses
SEQ ID NO: 12 (SLVASFVEV),specific responses in peripheral blood of melanoma patients in comparison to control experiments and parental peptides,[1],multiplied
same,specific immune responses / T cell activity in vitro (IFN-γ ELISPOT),[1],induce T cell activity in vitro very efficiently
same,T cell IFN-γ responses after immunization of mice,[2],high T cell IFN-γ responses
same,immune responses in the mouse model in comparison to control experiments and parental epitopes,[2],enhanced immune responses
SEQ ID NO: 15 (FLIGALLTV),specific responses in peripheral blood of melanoma patients in comparison to control experiments and parental peptides,[1],multiplied
same,specific immune responses / T cell activity in vitro (IFN-γ ELISPOT),[1],induce T cell activity in vitro very efficiently
same,T cell IFN-γ responses after immunization of mice,[2],high T cell IFN-γ responses
same,immune responses in the mouse model in comparison to control experiments and parental epitopes,[2],enhanced immune responses
SEQ ID NO: 16 (LLTAALWYV),specific responses in peripheral blood of melanoma patients in comparison to control experiments and parental peptides,[1],multiplied
same,specific immune responses / T cell activity in vitro (IFN-γ ELISPOT),[1],induce T cell activity in vitro very efficiently
same,T cell IFN-γ responses after immunization of mice,[2],high T cell IFN-γ responses
same,immune responses in the mouse model in comparison to control experiments and parental epitopes,[2],enhanced immune responses
B1,binding result,[3],binds
LLTAALWYV (also called AA 613: valine) [hCD105 605-613 (613V)],IC50,[4],≤ 3.5 µM
B2,binding result,[3],binds
B3,binding result,[3],binds
B4,binding result,[3],binds
B5,binding result,[3],binds
B6,binding result,[3],binds
B7,IC50,[4],≤ 3.5 µM
FLIGALLTV (also called AA 608: valine) [hCD105 600-608 (608V)],IC50,[4],≤ 3.5 µM
B8,binding result,[3],binds
B9,binding result,[3],binds
LLLQGPPYV (also called AA 252: leucine) [hCD105 251-259 (252L)],IC50,[4],≤ 3.5 µM
B10,binding result,[3],binds
LLHFYTVPV (also called AA541: valine) [hCD105 533-541 (541V)],IC50,[4],≤ 3.5 µM
B11,binding result,[3],binds
B12,IC50,[4],≤ 3.5 µM
